In US20170362287A1, “GPC3 EPITOPE PEPTIDES FOR TH1 CELLS AND VACCINES CONTAINING THE SAME” (ONCOTHERAPY SCIENCE, INC., priority 2014, published 2017):
Entries after “also recorded” stand apart in the source; their conditions may differ.

Tests used:
[1] = system: GPC3-LPs-specific Th cell clones; experiment: Cytokine assay of GPC3-LP-specific Th cell clones (Bio-Plex); assay type: cell-based, human; details: clones from HD10; 24 h restimulation with cognate peptide-pulsed autologous PBMC
Method: GPC3-LPs-specific bulk Th cells or Th cell clones (3×10^4/well) were cultured in the presence of cognate peptides-pulsed autologous PBMC in 96-well culture plates. After 24 h, culture supernatants were collected and cytokine (IFN-gamma, TNF-αlfa, IL-2, GM-CSF, and MIP1beta) levels were measured using the Bio-Plea system (Bio-Rad) according to manufacturer's instructions.

[2] = system: GPC3-LPs-specific Th-cells; experiment: Natural processing and presentation of GPC3-LPs by DCs loaded with recombinant GPC3 protein, IFN-gamma ELISPOT; assay type: cell-based; details: in vitro; LP-specific Th cells from HD10, autologous DCs loaded with recombinant human GPC3 protein
Method: The immune response of Th cells to antigen-presenting cells (APCs) pulsed with peptides (10 micro-g/ml) or proteins (10 micro-g/ml) were assessed by IFN-gamma enzyme-linked immunospot (ELISPOT) assays (BD Biosciences) as described previously (Tomita Y, et al. Cancer Sci 2011; 102:697-705). Briefly, the frequency of peptide-specific CD4^+ T-cells producing IFN-gamma per 3×10^4 bulk CD4^+ T-cells upon stimulation with peptide-pulsed PBMCs (3×10^4), or 1×10^4 bulk CD4^+ T-cells upon stimulation with peptide-pulsed and HLA-DR-expres sing L-cells (5×10^4/well) or RM3 (5×10^4/well) was analyzed as described previously (Tosolini M, et al. Cancer Res 2011; 71:1263-71).
It was assessed whether DCs take up and process the GPC3 protein to stimulate GPC3-LPs-specific Th-cells that were generated by stimulation with LPs. DCs loaded with recombinant GPC3 protein were prepared and used as APCs in IFN-gamma ELISPOT assays (Tomita Y, et al. Cancer Sci 2011; 102:71-8; Harao M, et al., Int J Cancer 2008; 123:2616-25).

[3] = system: A2-GPC3-SP-specific bulk CTLs; experiment: In vitro cross-presentation assay using human DCs, IFN-gamma ELISPOT; assay type: cell-based; details: autologous DC, donor HD5 (HLA-A2+)
Method: Yuba et al. (Yuba E, et al., Biomaterials 2013; 34:3042-52) developed the pH-sensitive modified liposomes containing the tumor antigen to enhance the efficiency of the cross-presentation in DCs. To assess the cross-presentation of GPC3-LP2: GPC3137-161, DCs pulsed with LP encapsulated in liposome were utilized. Liposome was prepared as previously described (Yuba E, et al., Biomaterials 2013; 34:3042-52). Briefly, peptide (0.22 micro-mol) dissolved in N, N-dimethylformamide or deionized water (5 mg/mL) was added to a dry, thin membrane of EYPC/CHexPG-PE (97/3, mol/mol; 6.25 micro-mol), and then the solvent was removed under vacuum for more than 3 h. Obtained lipid and peptide mixture was dispersed in PBS (500 micro-L) with 2 min-sonication using a bath-type sonicator, affording a peptide-incorporated liposome suspension. The liposome suspension was further hydrated by freezing and thawing, and was extruded through a polycarbonate membrane with a pore size of 100 nm. […] Lipid and peptide concentrations were determined by Phospholipids C (Wako) and Micro BCA Protein assay (Thermo Scientific), respectively.
Immature DCs were prepared from positively isolated CD14+ cells (day 0). […] The number of IFN-gamma producing-A2-GPC3144-152-SP-specific bulk CTLs in response to DCs loaded with GPC3-LP2 encapsulated in liposome was counted by an ELISPOT assay. […]

Question: “LTPQAFEFVGEFFTDVSLYILGSDI (Th1 epitope peptide) [GPC3-LP2]” was tested. Which “Cytokines (IFN-gamma, TNF-alpha, IL-2, GM-CSF and MIP1beta) produced by LP-specific T cell clones” value [1] did it give?
Answer: large amount

Question: And the Natural processing [2]?
Answer: recognized autologous DCs; also recorded: positive

Question: What about the “Cross-presentation of the LP by DCs to A2-GPC3-SP-specific HLA-A2-restricted CTLs (IFN-gamma production)” value [3] of the same sequence?
Answer: could not cross-present
